Values of other authors, collected in patent US20170276692A1, “METHODS OF MONITORING FOR ADHERENCE TO BREXPIPRAZOLE (REXULTI®) THERAPY” (Ameritox, LLC, priority 2016, published 2017).

Columns and labels:
[1] = for predominant route of excretion: in vivo
[2] = brexpiprazole is the predominant species

fraction of an oral dose excreted as unchanged brexpiprazole in feces ([1]; oral dose, feces) [%]	fraction of an oral dose excreted as unchanged brexpiprazole in urine ([1]; oral dose, urine)	oral bioavailability (after oral administration) [%]	time to steady state serum concentrations (days of dosing) [days]	mean elimination half-life (in vivo) [h]	metabolite level in plasma [2]	Compound	predominant route of excretion [1]
						c1cc(N2CCNCC2)c2ccsc2c1 [SF034318]	excreted predominantly in urine
14	Less than 1%	95	10 to 12	91		O=c1ccc2ccc(OCCCCN3CCN(c4cccc5sccc45)CC3)cc2[nH]1 [Brexpiprazole]	
					0-4%	O=C(O)CCCOc1ccc2ccc(=O)[nH]c2c1 [OPC3952]	excreted predominantly in urine
